# Laboratory results from US8053581B2, “Trisubstituted thiazole compounds, preparations methods, pharmaceutical compositions and medicals uses thereof” (Institute of Pharmacology and Toxicology Academy of …, priority 2006, dated 2011).
# Experiments:
# CETP [1] = biological target: T1, CETP (Homo sapiens, UniProt P11597); test: Determination of CETP inhibition activity (fluorescent donor/acceptor transfer); format: biochemical; conditions: for inhibition at 500 µM: Concentration of compounds 500 μM, read-out: CETP inhibition activity Inhibition rate(%)
# T1 sequence (P11597 18-493): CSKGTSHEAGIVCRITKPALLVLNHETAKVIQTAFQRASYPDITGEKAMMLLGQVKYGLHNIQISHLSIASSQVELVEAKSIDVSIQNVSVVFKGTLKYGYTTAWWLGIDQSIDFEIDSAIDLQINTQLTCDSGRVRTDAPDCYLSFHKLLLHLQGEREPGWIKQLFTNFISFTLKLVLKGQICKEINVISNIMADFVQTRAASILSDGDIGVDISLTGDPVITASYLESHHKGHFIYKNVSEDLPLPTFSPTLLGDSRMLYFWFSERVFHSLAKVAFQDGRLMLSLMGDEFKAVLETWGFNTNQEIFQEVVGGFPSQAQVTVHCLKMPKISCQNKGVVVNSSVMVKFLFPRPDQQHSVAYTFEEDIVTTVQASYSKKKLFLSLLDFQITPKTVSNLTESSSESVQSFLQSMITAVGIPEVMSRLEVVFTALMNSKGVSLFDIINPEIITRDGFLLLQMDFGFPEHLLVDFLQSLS
# Protocol: A mixture containing 3 μl of a donor, 9 μl of an acceptor (250 μg protein), 3 μl of CETP solution and 85 μl of an analytic buffer, 10 mM Tris, 0.15 M NaCl and 2 mM EDTA, pH 7.4 was incubated at 37° C. for 0.5 hours, the fluorescence intensity was determined on Victor 3 double illuminometer/fluorescence counter (Perkin Elmer) carrying […] light wave length.
# PLTP [2] = biological target: T2, PLTP (Homo sapiens, UniProt P55058); test: Determination of PLTP inhibition activity (radiolabelled phospholipid liposome to HDL transfer with plasma); format: biochemical; conditions: for inhibition at 150 µM: Concentration of compounds 150 μM; for inhibition at 150 µM / inhibition at 250 µM / inhibition at 500 µM: read-out: PLTP inhibition activity Inhibition rate(%); for inhibition at 250 µM: Concentration of compounds 250 μM; for inhibition at 500 µM: Concentration of compounds 500 μM
# T2 construct: from tissue
# Protocol: 30 μl (about 1000 cpm/μl) phospholipids liposome, 30 μl HDL ([…]), 337 μl TSE and 3 μl plasma were mixed, incubated in 37° C. water-bath for 1 hour, and then added 300 μl of a settling solution (50 ml solution preparation: 5.36 ml 5N NaCl, 9.075 ml 2M MnCl2 and 46 mg liver phospholipid were mixed, added water to 50 ml), the solution was stood at room temperature for 10 minutes, rotated at high speed for 10 minutes (to remove phospholipids liposome), 500 μl of the supernatant was sampled and counted. PLTP activity (cpm/h/3 μl)=sample cpm-background cpm.
# PLTP [3] = biological target: T2, PLTP; conditions: reported in WO 2002068450; read-out: Ki value to inhibit PLTP; cited from earlier work
# CETP [4] = biological target: T1, CETP; conditions: reported in WO 2002068450; read-out: Ki value to inhibit CETP; cited from earlier work
# T2 sequence (P55058 18-493, species assumed): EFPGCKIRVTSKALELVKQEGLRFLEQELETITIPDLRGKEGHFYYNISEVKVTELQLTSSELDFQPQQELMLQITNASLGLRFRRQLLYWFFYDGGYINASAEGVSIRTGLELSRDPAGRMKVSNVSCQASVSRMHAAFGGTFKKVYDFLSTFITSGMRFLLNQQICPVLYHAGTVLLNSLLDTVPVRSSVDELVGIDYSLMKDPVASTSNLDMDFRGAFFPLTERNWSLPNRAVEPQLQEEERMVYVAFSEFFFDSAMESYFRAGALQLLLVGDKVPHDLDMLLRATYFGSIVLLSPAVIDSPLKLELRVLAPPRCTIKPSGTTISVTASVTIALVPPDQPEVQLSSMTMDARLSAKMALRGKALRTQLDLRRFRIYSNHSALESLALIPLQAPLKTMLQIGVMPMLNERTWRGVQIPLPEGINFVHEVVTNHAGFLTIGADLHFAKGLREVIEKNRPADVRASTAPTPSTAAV
Compound,melting point [°C],inhibition at 500 µM (CETP [1]) [%],inhibition at 150 µM (PLTP [2]) [%],IC50 (PLTP [2]) [µM],inhibition at 250 µM (PLTP [2]) [%],IC50 (CETP [1]) [µM],inhibition at 500 µM (PLTP [2]) [%],Ki (PLTP [3]) [µM],Ki (CETP [4]) [µM]
"COc1ccc(-c2nc(N)sc2CC2CCCCC2)cc1 [Example 47, 5-cyclohexylmethyl-4-(4-methoxy-phenyl)-thiazol-2-ylamine]",118 to 119,79.8,0,,,,,,
"O=C(Nc1nc(-c2ccc(O)cc2)c(CC2CCCCC2)s1)c1ccc(O)c(O)c1 [Example 49, N-[5-cyclohexylmethyl-4-(4-hydroxy-phenyl)-thiazol-2-yl]-3,4-dihydroxy-benzamide]",133 to 134,6,81.6,35,,,,,
"O=C(Nc1nc(-c2ccc(O)cc2)c(CC2CCCCC2)s1)c1cc(O)c(O)c(O)c1 [Example 51, N-[5-cyclohexylmethyl-4-(4-hydroxy-phenyl)-thiazol-2-yl]-3,4,5-trihydroxy-benzamide]",238 to 239,20.9,,18,100,,,,
"Cc1sc(NC(=O)c2cc(O)c(O)c(O)c2)nc1-c1ccc(O)cc1 [Example 55, 3,4,5-trihydroxy-N-[4-(4-hydroxy-phenyl)-5-methyl-thiazol-2-yl]-benzamide]",262 to 263,85.9,,,10.7,,,,
"COc1ccc(-c2nc(N)sc2CCc2ccccc2)cc1 [Example 57, 4-(4-methoxy-phenyl)-5-phenylethyl-thiazol-2-ylamine]",143 to 144,75.8,,,24,,,,
"O=C(Nc1nc(-c2ccc(O)cc2)c(CCc2ccccc2)s1)c1ccc(O)c(O)c1 [Example 60, 3,4-dihydroxy-N-[4-(4-hydroxy-phenyl)-5-phenylethyl-thiazol-2-yl]-benzamide]",208 to 209,0,,35,97,,,,
"CCCCc1sc(N)nc1-c1ccc(OC)cc1 [Example 62, 4-(4-methoxy-phenyl)-5-n-butyl-thiazol-2-ylamine]",118 to 119,65.4,,,15.3,,,,
"CCCCc1sc(NC(=O)c2ccc(O)c(O)c2)nc1-c1ccc(O)cc1 [Example 65, N-[5-n-butyl-4-(4-hydroxy-phenyl)-thiazol-2-yl]-3,4-dihydroxy-benzamide]",189 to 190,0,,75,93.4,,,,
"CCCCc1sc(NC(=O)c2cc(O)c(O)c(O)c2)nc1-c1ccc(O)cc1 [Example 66, N-[5-n-butyl-4-(4-hydroxy-phenyl)-thiazol-2-yl]-3,4,5-trihydroxy-benzamide]",119 to 120,27.3,,75,100,,,,
"O=C(CCc1ccc(O)c(O)c1)Nc1nc(-c2ccc(O)cc2)c(Cc2ccccc2)s1 [Example 69, N-[5-benzyl-4-(4-hydroxy-phenyl)-thiazol-2-yl]-3-(3,4-dihydroxy-phenyl)-propanamide]",94 to 95,25.3,75.7,75,,,,,
"COc1ccc(-c2nc(N3CCOCC3)sc2Cc2ccccc2)cc1 [Example 70, 4-[5-benzyl-4-(4-methoxy-phenyl)-thiazol-2-yl]-morpholine]",88 to 89,91.6,,,,75,61,,
"COc1ccc(-c2nc(N3CCNCC3)sc2Cc2ccccc2)cc1.Cl.Cl.Cl [Example 72, 1-[5-benzyl-4-(4-methoxy-phenyl)-thiazol-2-yl]-piperazine trihydrochloride]",111 to 112,74.5,,,,,100,,
"CC(C)(C)C(=O)Nc1ccccc1SSc1ccccc1NC(=O)C(C)(C)C [N-{2-[2-(2,2-dimethyl-propanamido)-phenyldithio]-phenyl}-2,2-dimethyl-propanamide]",,,,,,,,15,13
